Numbers after ± are expanded uncertainties.
Assays:
[1] = DTA; for Normal melting temperature: Crystal 1
[2] = Molar enthalpy of transition or fusion; details: DSC

Normal melting temperature [1] [°C] | Molar enthalpy of transition or fusion ([2]; Crystal 1) [kcal/mol] | Triple point temperature ([1]; Crystal 2) [K] | Triple point temperature ([1]; Crystal 3) [K] | Molar enthalpy of transition or fusion ([2]; Crystal 2) [kcal/mol] | Molar enthalpy of transition or fusion ([2]; Crystal 3) [kcal/mol] | Compound
38.5 ± 0.71 | 16.5 ± 0.43 |  |  |  |  | CCCCCCCCCCCCCCCCCCCC [eicosane]
77.04 ± 0.71 | 19.5 ± 0.502 | 348.28 ± 0.71 | 347.33 ± 0.71 | 5.91 ± 0.172 | 2.8 ± 0.0932 | CCCCCCCCCCCCCCCCCCCCCCCCCCCCCCCCCCCC [hexatriacontane]
81.54 ± 0.71 | 4.67 ± 0.141 |  |  |  |  | c1ccc2ccccc2c1 [naphthalene]
52.77 ± 0.71 | 13.3 ± 0.359 | 312.9 ± 0.71 | 309 ± 0.71 | 0.256 ± 0.0311 | 5.71 ± 0.167 | CCCCCCCCCCCCCCCCCCCCCCCCC [pentacosane]

— the NIST ThermoML archive (doi:10.1016/j.tca.2006.03.011)
